From US20250171426A1, “PYRIMIDINEDIONE-BASED COMPOUNDS AS AXL, C-MET, AND MER INHIBITORS AND METHODS OF USE THEREOF” (CMG Pharmaceutical Co., Ltd., priority 2022, published 2025)

Assays:
PC9ER = assay: Cell viability assay (CellTiter-Glo 2.0), erlotinib-resistant PC9/ER cells; format: cell-based; settings: 72 h, combination of EGFR TKI and inhibitor of Formula (I), read-out: Relative cell viability, IC50 (nM) PC9ER
From the text: (§1) To explore c-MET and AXL mechanisms of EGFR TKI resistance, resistant cells of the EGFR TKI hypersensitive EGFR exon 19 mutant NSCLC cell line, HCC827 and PC9 were generated by exposing these cells to increasing concentrations of EGFR TKI for over 3 months.
(§2) Gefitinib-resistant cells were referred to as HCC827/GR. […] Osimertinib-resistant cells were referred to as HCC827/OR.

HCC827ER = assay: Cell viability assay (CellTiter-Glo 2.0), erlotinib-resistant HCC827/ER cells; format: cell-based, human; settings: 72 h, combination of EGFR TKI and inhibitor of Formula (I), read-out: Relative cell viability, IC50 (nM) HCC827ER
From the text: as §1, §2

HCC827OR = assay: Cell viability assay (CellTiter-Glo 2.0), osimertinib-resistant HCC827/OR cells; format: cell-based, human
From the text: as §1, §2

HCC827GR = assay: Cell viability assay (CellTiter-Glo 2.0), gefitinib-resistant HCC827/GR cells; format: cell-based, human; settings: 72 h, combination of EGFR TKI and inhibitor of Formula (I), read-out: Relative cell viability, IC50 (nM) HCC827GR
From the text: as §1
The human cell line HCC827 was purchased from the American Type Culture Collection (Manassas, VA), and the PC9 cell line was obtained from RIKEN Cell Bank (Ibaraki, Japan). […] Gefitinib-resistant cells were referred to as HCC827/GR. […] Osimertinib-resistant cells were referred to as HCC827/OR.
(§3) Cell viability assays were carried out by plating 1,000 cells per well of HCC827 or PC9 resistant cells, respectively, into white transparent-bottom 384-well plates. The cells were treated with each TKI across a 10-dose range from 1 nM to 10,000 nM. After 72 h of drug treatment, cell viability was measured using the CellTiter-Glo 2.0 assay (Promega, Madison, WI).
as §3

c-MET = c-MET (Homo sapiens, UniProt P08581); assay: Enzymatic assay (ADP-Glo kinase reaction), c-MET; format: biochemical; settings: 10 μM ATP, 60 min, ADP-GLO luminescence
c-MET, sequence (P08581 25-1390): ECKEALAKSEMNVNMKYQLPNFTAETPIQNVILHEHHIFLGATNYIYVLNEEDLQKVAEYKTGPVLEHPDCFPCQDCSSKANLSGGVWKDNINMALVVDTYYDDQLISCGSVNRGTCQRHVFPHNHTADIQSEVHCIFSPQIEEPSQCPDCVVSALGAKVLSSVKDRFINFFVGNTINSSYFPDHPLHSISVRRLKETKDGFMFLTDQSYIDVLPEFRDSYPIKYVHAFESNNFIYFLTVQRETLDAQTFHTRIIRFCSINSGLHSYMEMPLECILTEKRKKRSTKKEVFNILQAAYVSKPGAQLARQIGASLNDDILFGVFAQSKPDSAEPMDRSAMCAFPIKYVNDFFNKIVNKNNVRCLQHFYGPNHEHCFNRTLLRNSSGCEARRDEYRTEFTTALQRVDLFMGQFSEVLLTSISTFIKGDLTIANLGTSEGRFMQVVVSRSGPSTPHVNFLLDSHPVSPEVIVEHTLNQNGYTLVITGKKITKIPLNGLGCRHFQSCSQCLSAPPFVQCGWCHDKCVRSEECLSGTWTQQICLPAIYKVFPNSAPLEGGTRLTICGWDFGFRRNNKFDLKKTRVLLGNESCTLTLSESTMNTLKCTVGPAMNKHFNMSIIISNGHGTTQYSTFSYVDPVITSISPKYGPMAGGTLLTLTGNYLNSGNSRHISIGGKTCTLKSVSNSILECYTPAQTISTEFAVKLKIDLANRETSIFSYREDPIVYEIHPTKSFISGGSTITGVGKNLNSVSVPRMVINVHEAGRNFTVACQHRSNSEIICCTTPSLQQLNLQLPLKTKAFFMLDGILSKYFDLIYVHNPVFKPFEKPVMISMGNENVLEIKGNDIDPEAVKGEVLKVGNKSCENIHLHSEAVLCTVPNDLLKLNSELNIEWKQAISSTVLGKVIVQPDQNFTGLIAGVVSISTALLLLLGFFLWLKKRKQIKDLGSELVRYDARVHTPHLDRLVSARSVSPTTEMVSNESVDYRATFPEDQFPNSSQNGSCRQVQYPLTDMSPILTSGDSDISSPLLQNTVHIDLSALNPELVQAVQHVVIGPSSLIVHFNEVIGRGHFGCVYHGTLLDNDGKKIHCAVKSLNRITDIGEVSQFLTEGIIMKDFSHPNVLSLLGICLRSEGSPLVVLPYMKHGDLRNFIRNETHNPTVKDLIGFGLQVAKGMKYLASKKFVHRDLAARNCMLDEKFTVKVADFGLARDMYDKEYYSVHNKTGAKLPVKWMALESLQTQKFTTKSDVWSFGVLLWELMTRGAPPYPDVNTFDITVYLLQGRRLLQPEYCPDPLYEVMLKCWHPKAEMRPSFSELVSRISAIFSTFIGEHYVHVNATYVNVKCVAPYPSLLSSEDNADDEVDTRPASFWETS
Procedure, shortened: (§4)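 For both AXL and c-MET, reactions in tyrosine kinase buffer used 0.2 μg/μL poly(Glu4,Tyr1) and 10 μM ATP with serially diluted inhibitor, 60 min at room temperature. ADP formed was read by ADP-Glo luminescence after 40 min reagent incubation.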

AXL = target: T1, AXL (Homo sapiens, UniProt P30530); assay: Enzymatic assay (ADP-Glo kinase reaction), AXL; format: biochemical; settings: 10 μM ATP, 60 min, ADP-GLO luminescence
T1 sequence (P30530 26-894): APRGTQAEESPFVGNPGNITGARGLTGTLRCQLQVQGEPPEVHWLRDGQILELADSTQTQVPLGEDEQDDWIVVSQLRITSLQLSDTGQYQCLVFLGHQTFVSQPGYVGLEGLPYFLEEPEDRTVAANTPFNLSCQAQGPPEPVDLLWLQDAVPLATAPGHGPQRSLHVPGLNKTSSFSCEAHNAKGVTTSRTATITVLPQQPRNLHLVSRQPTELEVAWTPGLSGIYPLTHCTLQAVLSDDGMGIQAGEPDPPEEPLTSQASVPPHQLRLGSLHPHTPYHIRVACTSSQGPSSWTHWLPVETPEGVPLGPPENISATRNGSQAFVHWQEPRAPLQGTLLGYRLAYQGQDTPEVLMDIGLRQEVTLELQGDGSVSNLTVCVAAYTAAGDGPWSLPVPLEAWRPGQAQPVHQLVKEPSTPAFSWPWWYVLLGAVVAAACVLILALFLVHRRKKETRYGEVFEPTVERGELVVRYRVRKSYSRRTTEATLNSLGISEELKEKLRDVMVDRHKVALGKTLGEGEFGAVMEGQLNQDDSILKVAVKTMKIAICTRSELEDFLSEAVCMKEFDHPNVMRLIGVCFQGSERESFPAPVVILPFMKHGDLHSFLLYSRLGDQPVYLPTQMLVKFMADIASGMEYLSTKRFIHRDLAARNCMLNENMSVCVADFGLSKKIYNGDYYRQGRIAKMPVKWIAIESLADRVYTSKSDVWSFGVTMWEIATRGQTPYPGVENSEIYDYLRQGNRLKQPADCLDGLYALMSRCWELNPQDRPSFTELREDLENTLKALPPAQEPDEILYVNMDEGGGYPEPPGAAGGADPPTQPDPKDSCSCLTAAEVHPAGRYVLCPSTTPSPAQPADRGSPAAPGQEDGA
Procedure, shortened: as §4

MER = target: T2, MER (Homo sapiens, UniProt Q12866); assay: Enzymatic assay (ADP-Glo kinase reaction), MER; format: biochemical; settings: 10 μM ATP, 60 min, ADP-GLO luminescence
T2 sequence (Q12866 21-999): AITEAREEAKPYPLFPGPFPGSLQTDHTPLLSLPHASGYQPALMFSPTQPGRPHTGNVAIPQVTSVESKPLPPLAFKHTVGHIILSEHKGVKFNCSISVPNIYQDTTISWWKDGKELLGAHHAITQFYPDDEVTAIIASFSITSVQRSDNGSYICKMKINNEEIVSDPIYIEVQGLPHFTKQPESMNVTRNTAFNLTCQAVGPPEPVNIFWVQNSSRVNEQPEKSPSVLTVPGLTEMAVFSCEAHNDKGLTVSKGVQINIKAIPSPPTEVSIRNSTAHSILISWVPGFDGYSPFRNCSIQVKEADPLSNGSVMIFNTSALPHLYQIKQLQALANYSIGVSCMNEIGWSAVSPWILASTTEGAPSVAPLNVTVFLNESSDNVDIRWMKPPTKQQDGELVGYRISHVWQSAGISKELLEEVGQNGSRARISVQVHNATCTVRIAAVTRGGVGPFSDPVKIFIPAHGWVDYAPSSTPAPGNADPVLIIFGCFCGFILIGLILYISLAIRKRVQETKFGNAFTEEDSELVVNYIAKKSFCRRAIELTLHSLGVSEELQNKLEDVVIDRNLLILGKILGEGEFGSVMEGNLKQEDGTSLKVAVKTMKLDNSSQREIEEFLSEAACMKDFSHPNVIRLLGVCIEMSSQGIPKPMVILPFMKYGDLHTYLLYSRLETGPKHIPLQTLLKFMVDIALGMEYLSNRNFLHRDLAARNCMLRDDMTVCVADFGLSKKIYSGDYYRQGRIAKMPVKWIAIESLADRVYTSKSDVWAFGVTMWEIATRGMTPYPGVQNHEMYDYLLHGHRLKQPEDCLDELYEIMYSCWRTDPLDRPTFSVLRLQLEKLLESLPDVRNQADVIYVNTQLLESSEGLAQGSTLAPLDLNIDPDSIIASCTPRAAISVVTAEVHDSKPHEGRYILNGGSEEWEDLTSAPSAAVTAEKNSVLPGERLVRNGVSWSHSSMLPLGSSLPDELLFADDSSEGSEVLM
Procedure, shortened: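 ADP-Glo luminescence assay of MER in tyrosine kinase buffer with 0.2 μg/μL poly(Glu4,Tyr1) substrate and 10 μM ATP. Serially diluted inhibitor reacted 60 min at room temperature. IC50 taken from luminescence after ADP-Glo and detection steps.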

Compound: N-(4-(2-amino-3-(3-piperidin-4-yl)prop-1-ynyl)pyridin-4-yloxy)-3-fluorophenyl)-3-cyclohexyl-1-ethyl-2,4-dioxo-1,2,3,4-tetrahydropyrimidine-5-carboxamide [Example 65]
- IC50 (PC9ER): < 1000 nM
- IC50 (HCC827ER): < 1000 nM
- IC50 (HCC827OR; 72 h, combination of EGFR TKI and inhibitor of Formula (I), EGFR TKI-resistant cells, read-out: Relative cell viability, IC50 (nM) HCC827OR): < 10000 nM
- IC50 (HCC827GR): < 1000 nM

Compound: C=CC(=O)Nc1cc(Nc2nccc(-c3cn(C)c4ccccc34)n2)c(OC)cc1N(C)CCN(C)C [osimertinib, reference compound]
- fold higher resistance than the parental cells, HCC827/OR (HCC827OR; HCC827/OR vs HCC827): 3,000 fold

Compound: CC(C)(C#Cc1c(Oc2ccc(NC(=O)c3c[nH]c(=O)n(-c4ccc(F)cc4)c3=O)cc2F)ccnc1N)N1CCOCC1 [Example 50, N-(4-(2-amino-3-(3-methyl-3-morpholinobut-1-ynyl)pyridin-4-yloxy)-3-fluorophenyl)-3-(4-fluorophenyl)-2,4-dioxo-1,2,3,4-tetrahydropyrimidine-5-carboxamide]
- IC50 (c-MET): < 100 nM
- IC50 (AXL): < 10 nM
- IC50 (MER): < 100 nM
